Test results reported in ChEMBL document CHEMBL3611997, “4-Fluoro-3',4',5'-trimethoxychalcone as a new anti-invasive agent. From discovery to initial validation in an in vivo metastasis model” (Eur J Med Chem, 2015).
Values after ≈ are worked out from the molar mass of the structure shown.

Tests used:
[1] = target: Tubulin (Sus scrofa) (UniProt P02554+P02550); experiment: Inhibition of porcine brain tubulin polymerization assessed as microtubule assembly at 1 umol/L after 15 mins by DAPI staining
Chain of Tubulin (Sus scrofa) (P02550 whole entry, looked up): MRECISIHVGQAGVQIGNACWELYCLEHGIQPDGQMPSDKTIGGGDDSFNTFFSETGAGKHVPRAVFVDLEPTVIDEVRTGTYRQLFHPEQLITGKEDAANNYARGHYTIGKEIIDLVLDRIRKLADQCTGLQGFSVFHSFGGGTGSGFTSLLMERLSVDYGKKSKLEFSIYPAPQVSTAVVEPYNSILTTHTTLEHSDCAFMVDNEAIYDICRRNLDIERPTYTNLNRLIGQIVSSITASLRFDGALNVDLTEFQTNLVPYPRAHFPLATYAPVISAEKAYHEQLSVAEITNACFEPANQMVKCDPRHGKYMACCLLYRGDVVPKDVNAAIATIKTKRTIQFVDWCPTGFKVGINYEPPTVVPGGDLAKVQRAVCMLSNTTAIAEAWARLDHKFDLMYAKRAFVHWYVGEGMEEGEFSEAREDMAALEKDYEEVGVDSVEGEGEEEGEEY
Chain of Tubulin (Sus scrofa) (P02554 whole entry, looked up): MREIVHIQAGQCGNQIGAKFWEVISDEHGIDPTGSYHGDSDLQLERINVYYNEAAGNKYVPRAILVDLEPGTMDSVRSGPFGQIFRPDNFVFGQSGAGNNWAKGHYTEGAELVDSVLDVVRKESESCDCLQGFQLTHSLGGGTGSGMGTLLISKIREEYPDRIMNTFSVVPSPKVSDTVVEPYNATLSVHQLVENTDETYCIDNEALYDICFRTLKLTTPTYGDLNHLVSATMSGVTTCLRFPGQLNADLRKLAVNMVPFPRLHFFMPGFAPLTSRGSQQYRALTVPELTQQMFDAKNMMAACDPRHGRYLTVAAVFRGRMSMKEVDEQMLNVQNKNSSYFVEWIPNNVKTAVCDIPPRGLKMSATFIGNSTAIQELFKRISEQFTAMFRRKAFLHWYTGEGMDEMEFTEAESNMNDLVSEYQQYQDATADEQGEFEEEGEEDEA

[2] = Antiinvasive activity in human in BLM cells assessed as reduction of amount of cells present on filter at 10 umol/L after 24 hrs by matrigel invasion assay (reference value: 100%); assay type: functional; parameters: scale not given: the % may be the effect or the level left
[3] = target: CYP3A4 (Homo sapiens, UniProt P08684); experiment: Inhibition of CYP3A4 (unknown origin) at 10 umol/L; assay type: ADME
Chain of CYP3A4 (P08684 whole entry): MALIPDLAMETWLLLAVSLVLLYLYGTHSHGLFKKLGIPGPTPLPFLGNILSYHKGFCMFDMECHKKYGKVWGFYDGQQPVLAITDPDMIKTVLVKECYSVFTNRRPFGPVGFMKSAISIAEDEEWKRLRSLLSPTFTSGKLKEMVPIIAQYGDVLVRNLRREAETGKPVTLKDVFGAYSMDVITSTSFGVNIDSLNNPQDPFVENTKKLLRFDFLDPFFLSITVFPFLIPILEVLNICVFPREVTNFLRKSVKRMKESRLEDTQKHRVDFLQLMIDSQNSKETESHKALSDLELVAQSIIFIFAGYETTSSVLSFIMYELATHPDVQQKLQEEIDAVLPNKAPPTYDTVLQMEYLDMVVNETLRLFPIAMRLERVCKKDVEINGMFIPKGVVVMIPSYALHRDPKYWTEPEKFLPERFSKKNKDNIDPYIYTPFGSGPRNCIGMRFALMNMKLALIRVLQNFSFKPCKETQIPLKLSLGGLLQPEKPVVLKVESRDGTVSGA

[4] = Half life of the compound in simulated gastric fluid at 1 umol/L; assay type: ADME
[5] = Permeability across apical to basolateral side of human Caco2 cells at 10 umol/L at pH 7.4; assay type: ADME, cell-based; details: Caco-2, pH 7.4, read-out: permeability
[6] = test system: Mus musculus; experiment: Toxicity in Swiss nu/nu mouse assessed as hematological anomalies by measuring WBC count at 16 mg/kg, ip administered three times a week for two-week period measured on day 15 (reference value: 2420 +/- 782 /microL); assay type: organism-based; details: in vivo
[7] = Antiinvasive activity in human in BLM cells assessed as reduction of amount of cells present on filter at 0.1 umol/L after 24 hrs by matrigel invasion assay (reference value: 100%); assay type: functional; parameters: scale not given: the % may be the effect or the level left
[8] = target: T1, hERG (Homo sapiens, UniProt Q12809); experiment: Inhibition of human ERG assessed as reduction of tail current at 1 umol/L
T1 sequence (Q12809 whole entry): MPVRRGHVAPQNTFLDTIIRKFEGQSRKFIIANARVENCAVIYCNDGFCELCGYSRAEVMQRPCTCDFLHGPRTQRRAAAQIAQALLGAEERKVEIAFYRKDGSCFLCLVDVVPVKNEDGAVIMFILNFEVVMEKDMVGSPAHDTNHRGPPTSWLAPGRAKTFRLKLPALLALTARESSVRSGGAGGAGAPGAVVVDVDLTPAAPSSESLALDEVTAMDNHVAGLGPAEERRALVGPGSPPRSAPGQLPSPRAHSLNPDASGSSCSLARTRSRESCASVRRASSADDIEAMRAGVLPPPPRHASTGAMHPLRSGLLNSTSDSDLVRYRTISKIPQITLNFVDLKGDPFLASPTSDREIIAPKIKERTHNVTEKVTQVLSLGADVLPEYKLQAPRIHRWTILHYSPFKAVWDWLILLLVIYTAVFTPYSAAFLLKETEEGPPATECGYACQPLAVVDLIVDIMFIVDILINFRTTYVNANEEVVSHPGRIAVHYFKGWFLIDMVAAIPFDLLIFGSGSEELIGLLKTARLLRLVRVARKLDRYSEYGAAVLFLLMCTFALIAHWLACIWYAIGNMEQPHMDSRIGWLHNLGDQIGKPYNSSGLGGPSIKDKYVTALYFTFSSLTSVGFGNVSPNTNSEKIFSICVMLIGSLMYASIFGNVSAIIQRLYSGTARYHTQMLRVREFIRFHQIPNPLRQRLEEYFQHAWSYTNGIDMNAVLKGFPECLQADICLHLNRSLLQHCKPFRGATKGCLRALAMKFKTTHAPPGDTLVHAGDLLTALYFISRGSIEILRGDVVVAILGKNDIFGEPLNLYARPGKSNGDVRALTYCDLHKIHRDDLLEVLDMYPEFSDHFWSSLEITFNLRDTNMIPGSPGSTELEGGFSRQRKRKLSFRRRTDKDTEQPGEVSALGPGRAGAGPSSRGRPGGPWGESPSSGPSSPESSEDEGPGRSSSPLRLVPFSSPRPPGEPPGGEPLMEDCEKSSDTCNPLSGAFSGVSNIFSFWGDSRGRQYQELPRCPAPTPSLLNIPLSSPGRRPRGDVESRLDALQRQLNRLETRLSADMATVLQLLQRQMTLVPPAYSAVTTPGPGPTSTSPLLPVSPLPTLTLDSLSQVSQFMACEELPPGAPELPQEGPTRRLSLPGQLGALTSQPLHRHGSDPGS

[9] = target: T1, hERG; experiment: Inhibition of human ERG assessed as reduction of tail current at 0.1 umol/L
[10] = Octanol-phosphate buffer partition coefficient, log D of the compound at 100 umol/L at pH 7.4; assay type: physicochemical
[11] = test system: MDA-MB-231; experiment: Cytotoxicity against human MDA-MB-231 cells expressing GFP-Luc assessed as reduction of cellular protein content at 0.01 to 100 umol/L after 6 days by SRB assay; assay type: cell-based; details: mda-mb-231, 144 h
[12] = test system: Mus musculus; experiment: Toxicity in human MCF7/6 cells xenografted Swiss nu/nu mouse assessed as macroscopic metastases at 160 mg/kg, ip administered thrice a week measured after 3 months; assay type: organism-based; details: in vivo, 2191.5 h
[13] = Toxicity in human HepG2 cells assessed as cell viability at 10 umol/L; assay type: cell-based; details: read-out: Activity
[14] = Toxicity in human HepG2 cells assessed as cell viability; assay type: cell-based; details: HepG2 cells
[15] = test system: SK-OV-3; experiment: Antiinvasive activity in human in SKOV3 cells assessed as reduction of amount of cells present on filter at 10 umol/L after 24 hrs by matrigel invasion assay (reference value: 100%); assay type: functional; parameters: scale not given: the % may be the effect or the level left
[16] = test system: MDA-MB-231; experiment: Cytotoxicity against human MDA-MB-231 cells expressing GFP-Luc assessed as reduction of mitochondrial activity at 0.01 to 100 umol/L after 6 days by MTT assay; assay type: cell-based; details: mda-mb-231, 144 h
[17] = test system: Mus musculus; experiment: Toxicity in Swiss nu/nu mouse assessed as macroscopic anomalies at 1.6 to 160 mg/kg, ip administered three times a week for two-week period measured on day 15; assay type: organism-based; details: in vivo
[18] = Intrinsic clearance in Sprague-Dawley rat liver S9 fraction at 0.1 umol/L; assay type: ADME, subcellular; details: read-out: CLH
[19] = test system: Mus musculus; experiment: Toxicity in Swiss nu/nu mouse assessed as hematological anomalies by measuring WBC count at 160 mg/kg, ip administered three times a week for two-week period measured on day 15 (reference value: 2420 +/- 782 /microL); assay type: organism-based; details: in vivo
[20] = target: T2, CYP1A2 (Homo sapiens, UniProt P05177); experiment: Inhibition of CYP1A2 (unknown origin) at 10 umol/L; assay type: ADME
T2 sequence (P05177 whole entry): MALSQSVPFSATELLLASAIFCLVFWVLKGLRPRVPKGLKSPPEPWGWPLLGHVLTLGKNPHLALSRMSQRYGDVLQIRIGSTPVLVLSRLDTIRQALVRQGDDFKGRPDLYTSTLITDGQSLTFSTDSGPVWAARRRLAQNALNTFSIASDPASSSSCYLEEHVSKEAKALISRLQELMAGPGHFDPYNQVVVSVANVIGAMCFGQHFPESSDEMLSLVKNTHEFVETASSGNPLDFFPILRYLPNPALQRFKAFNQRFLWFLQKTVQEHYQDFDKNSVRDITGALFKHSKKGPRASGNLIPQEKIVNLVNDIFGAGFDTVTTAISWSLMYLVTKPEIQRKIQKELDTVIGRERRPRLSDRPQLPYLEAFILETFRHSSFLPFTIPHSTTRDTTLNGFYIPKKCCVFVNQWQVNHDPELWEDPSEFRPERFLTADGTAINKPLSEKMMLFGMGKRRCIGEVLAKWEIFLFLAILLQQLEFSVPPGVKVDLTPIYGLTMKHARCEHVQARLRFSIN

[21] = target: T1, hERG; experiment: Inhibition of human ERG assessed as reduction of tail current at 10 umol/L
[22] = species: Homo sapiens; experiment: Displacement of [3H]-quinuclydinyl benzylate from muscarinic receptor (unknown origin) at 10 umol/L
[23] = Aqueous solubility of the compound in simulated intestinal fluid at 200 umol/L; assay type: physicochemical
[24] = test system: MCF10; experiment: Cytotoxicity against human MCF10 cells assessed as reduction of cellular protein content at 0.01 to 100 umol/L after 6 days by SRB assay; assay type: cell-based; details: mcf10, 144 h
[25] = test system: Mus musculus; experiment: Toxicity in Swiss nu/nu mouse assessed as hematological anomalies by measuring AST level at 1.6 mg/kg, ip administered three times a week for two-week period measured on day 15 (reference value: 254.2 +/- 144.6 IU/L); assay type: organism-based; details: in vivo
[26] = Cytotoxicity against human BLM cells assessed as reduction of mitochondrial activity at > 10 umol/L after 24 hrs by MTT assay; assay type: cell-based
[27] = Cytotoxicity against human BLM cells assessed as reduction of mitochondrial activity at 0.01 to 1 umol/L after 24 hrs by MTT assay; assay type: cell-based
[28] = Toxicity in human HepG2 cells assessed as cell viability at 1 umol/L; assay type: cell-based; details: read-out: Activity
[29] = test system: Mus musculus; experiment: Toxicity in Swiss nu/nu mouse assessed as hematological anomalies by measuring WBC count at 1.6 mg/kg, ip administered three times a week for two-week period measured on day 15 (reference value: 2420 +/- 782 /microL); assay type: organism-based; details: in vivo
[30] = test system: Mus musculus; experiment: Toxicity in Swiss nu/nu mouse assessed as hematological anomalies by measuring creatinine level at 16 mg/kg, ip administered three times a week for two-week period measured on day 15 (reference value: 0.29 +/- 0.02 mg/dL); assay type: organism-based; details: in vivo

## COc1cc(C(=O)/C=C/c2ccc(F)cc2)cc(OC)c1OC
[1]
  inhibition: -0.8%
[2]
  Activity: 7%
[3]
  inhibition at 10 µM: 27.2%
[4]
  half-life at 1 µM: > 1 h
[5]
  Papp A→B at 10 µM: 10.4 ×10⁻⁶ cm/s
[6]
  Activity: 5960 µL⁻¹
[7]
  Activity: 20%
[8]
  inhibition at 1 µM: 9.8%
[9]
  inhibition at 0.1 µM: 3.7%
[10]
  logD at 100 µM: 3.85
[11]
  Activity: Non-toxic
[12]
  Activity: Non-toxic
[13]
  viability at 10 µM: 44.3%
[14]
  EC50: 10 µM
[15]
  Activity: 12%
[16]
  Activity: Non-toxic
[17]
  Activity: Non-toxic
[18]
  microsomal CLint at 0.1 µM: 116 µL/min/mg
[19]
  Activity: 3180 µL⁻¹
[20]
  inhibition at 10 µM: 35.7%
[21]
  inhibition at 10 µM: 28.3%
[22]
  inhibition: -5.1%
[23]
  solubility at 200 µM: 7.9 µM (≈ 2.5 µg/mL)
[24]
  Activity: Non-toxic
[25]
  Activity: 135.5 IU/L
[26]
  Activity: Toxic
[27]
  Activity: Non-toxic
[28]
  viability at 1 µM: 93.8%
[29]
  Activity: 4400 µL⁻¹
[30]
  Activity: 0.32 mg/dL
